# Assay results reported in patent publication US20190135834A1, “5-SUBSTITUTED AZABENZIMIDAZOLE DERIVATIVE HAVING ???? ACTIVATION ACTION” (Shionogi & Co., Ltd., priority 2016, published 2019).
# Biological target: T1, Human AMPK α2ß2γ1 (Homo sapiens, UniProt O43741+P54646)
# T1 construct: The full length cDNAs of human AMPK ß2 (NM_005399.3) and human AMPK α2 (NM_006252.3); The full length cDNAs of human AMPK ß2 (NM_005399.3); 6xHis (N); made in house; host or cells: Escherichia coli BL21 CodonPlus (DE3)-RIL
# T1 sequence (P54646 whole entry): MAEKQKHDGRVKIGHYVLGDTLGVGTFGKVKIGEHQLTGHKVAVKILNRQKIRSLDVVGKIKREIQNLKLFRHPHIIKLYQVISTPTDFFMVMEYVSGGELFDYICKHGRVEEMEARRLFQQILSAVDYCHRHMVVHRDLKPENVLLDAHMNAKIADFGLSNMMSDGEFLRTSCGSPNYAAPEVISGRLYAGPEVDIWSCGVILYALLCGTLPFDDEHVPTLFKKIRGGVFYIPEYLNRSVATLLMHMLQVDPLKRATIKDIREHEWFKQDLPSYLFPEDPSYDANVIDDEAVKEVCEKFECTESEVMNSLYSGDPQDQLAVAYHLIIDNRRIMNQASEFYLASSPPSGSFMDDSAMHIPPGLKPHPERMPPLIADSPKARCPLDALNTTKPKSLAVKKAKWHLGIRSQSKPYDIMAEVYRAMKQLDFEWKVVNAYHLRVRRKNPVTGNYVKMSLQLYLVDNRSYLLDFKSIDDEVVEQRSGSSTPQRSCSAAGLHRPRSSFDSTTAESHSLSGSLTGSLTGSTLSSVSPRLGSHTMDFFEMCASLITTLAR
# T1 sequence (O43741 whole entry): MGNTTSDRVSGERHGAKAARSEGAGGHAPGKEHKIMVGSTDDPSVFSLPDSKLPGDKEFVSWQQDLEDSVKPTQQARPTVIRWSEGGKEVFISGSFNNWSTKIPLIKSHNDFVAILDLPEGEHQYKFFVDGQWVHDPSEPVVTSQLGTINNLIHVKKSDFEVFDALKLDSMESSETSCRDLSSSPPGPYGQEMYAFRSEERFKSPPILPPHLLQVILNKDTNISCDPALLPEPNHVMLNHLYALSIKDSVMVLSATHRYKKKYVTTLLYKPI
# T1 sequence (P54619 whole entry partner): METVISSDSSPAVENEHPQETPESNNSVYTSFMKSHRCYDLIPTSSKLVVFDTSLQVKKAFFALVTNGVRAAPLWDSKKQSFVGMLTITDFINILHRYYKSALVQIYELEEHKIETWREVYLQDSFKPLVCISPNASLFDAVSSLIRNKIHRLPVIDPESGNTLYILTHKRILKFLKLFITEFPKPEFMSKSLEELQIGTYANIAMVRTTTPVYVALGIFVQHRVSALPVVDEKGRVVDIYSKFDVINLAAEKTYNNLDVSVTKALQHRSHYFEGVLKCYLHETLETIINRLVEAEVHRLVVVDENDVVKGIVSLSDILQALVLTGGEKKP
# Assay: Test Example 2: evaluation of an activator for AMP-activated protein kinase (AMPK), LabChip mobility shift assay with CaMKK2-phosphorylated enzyme
# Type: biochemical
# Settings: for EC150 (compound concentration showing 150% relative to the control (100%)): FL-Peptide 7 substrate, 25° C., 2 hours; for Emax / Emax (maximum rate of increase in activity within the measurement range): relative to control (100%); for Emax: read-out: Emax (maximum rate of increase in activity within the measurement range)
# Method: The full length cDNAs of human AMPK ß2 (NM_005399.3) and human AMPK α2 (NM_006252.3) were inserted into the MCS1 and MCS2 of the pETDuet-1 vector to prepare a human AMPK ß2 and human AMPK α2 (6× His tag at the 5′ terminus) expressing plasmid. The plasmid was cotransfected with an expression plasmid, in which the full length cDNA of human AMPK γ1 (NM_002733.3) had been inserted into pET28b(+), into BL21 CodonPlus (DE3)-RIL to obtain an expression strain. The expression strain was cultured in TB medium, followed by induction with 0.5 mM IPTG, and cultured at 25° C. for 3 hours and then harvested. After ultrasonication, supernatant was collected and applied to Histrap FF column (GE) and RESOURCE Q column (GE) to prepare 12.5 mg of purified sample containing three types of subunit from 1.8 L of broth.
# Preparation method of human CaMKK2 used to impart activity to AMPK An expression vector, in which the full length cDNA of human CAMKK ß (NM_172226.1) had been inserted into pGEX-6P-3, was transfected into BL21 Star (DE3). The expression strain was cultured in TB medium, followed by induction with 0.5 mM IPTG, and cultured at 25° C. for 3 hours and then harvested. After ultrasonication, supernatant was collected and applied to GSTrap FF column (GE) to prepare 14 mg of GST-fused CAMKK ß from 720 ml of broth.
# Thus, phosphorylation treatment was carried out as pretreatment.
# Human AMPK α2ß2γ1 in an amount to give a conversion rate of approximately 10% by reaction for 2 hours, and CaMKK2 in an amount capable of sufficiently imparting activity to AMPK for one hour were mixed in a buffer solution consisting of a 50 mM HEPES-NaOH buffer solution (pH 7.0), 100 mM NaCl, 5 mM magnesium chloride, 0.1% bovine serum albumin, 0.2 mM sodium orthovanadate(V), 1 mM ethylene glycol-bis(2-aminoethyl ether)-N,N,N′,N′-tetraacetic acid (EGTA), 5 mM disodium ß-glycerophosphate, 1 mM dithiothreitol and 0.2 mM ATP, and the resulting liquid was left to stand at 25° C. for 1 to 1.5 hours to sufficiently phosphorylate AMPK.
# After that, to the enzyme liquid, which had been subjected to phosphorylation treatment, a compound dissolved in DMSO was added so as to have a 1% DMSO concentration. The resulting liquid was left to stand for 10 minutes.
# To the liquid, a substrate solution consisting of a 50 mM HEPES-NaOH buffer solution (pH 7.0), 100 mM NaCl, 10 mM magnesium chloride, 0.1% bovine serum albumin, 0.2 mM sodium orthovanadate(V), 1 mM ethylene glycol-bis(2-aminoethyl ether)-N,N,N′,N′-tetraacetic acid (EGTA), 5 mM disodium ß-glycerophosphate, 2 mM dithiothreitol, 0.4 mM ATP and 3 μM FL-Peptide 7 (manufactured by Caliper Life Sciences, Inc.) was added in equal amount (10 μl in total). The resulting liquid was allowed to react at 25° C. for 2 hours, and 10 μl of 20 mM EDTA was added thereto to stop the reaction.
# To detect phosphorylated fluorescent substrates, the reaction mixture was applied to a measuring device, LabChip EZ Reader II manufactured by Caliper Life Science, Inc., for detecting fluorescence by using differences in mobility due to differences in charge. The setting conditions for the device were pressure, −1.5 PSI; upstream voltage, −2250 V; downstream voltage, −400 V; post sample buffer sip time, 40 seconds; final delay, 120 seconds; and peak order, Product First.
# A conversion rate was calculated from the peak heights of the obtained substrate and product. The conversion rate when not containing a compound was used as a control, and a concentration dependent curve was made by plotting the rate of increase in activity to the control at each concentration of a compound.
Compound,EC150 (compound concentration showing 150% relative to the control (100%)) [nM],Emax [%],Emax (maximum rate of increase in activity within the measurement range) [%]
O[C@@H]1CO[C@H]2[C@@H]1OC[C@H]2Oc1nc2nc(NC3CCc4cc(OCF)cc(F)c43)c(Cl)cc2[nH]1 (stereo partly shown) [Compound I-2-72],1.8,592,
O=C1CCCN1CCOc1cc(F)c2c(c1)CCC2Nc1nc2nc(O[C@@H]3CO[C@H]4[C@@H]3OC[C@H]4O)[nH]c2cc1Cl (stereo partly shown) [Compound I-1-79],4.2,,385
O[C@@H]1CO[C@H]2[C@@H]1OC[C@H]2Oc1nc2cc(Cl)c(NC3CCc4cc(OCCOC(F)F)cc(F)c43)nc2[nH]1 (stereo partly shown) [Compound I-2-14],5.6,594,
O[C@@H]1CO[C@H]2[C@@H]1OC[C@H]2Oc1nc2nc(NC3CCc4cc(OCCOC5CC5)cc(F)c43)c(Cl)cc2[nH]1 (stereo partly shown) [Compound I-2-40],4.1,604,
O[C@@H]1CO[C@H]2[C@@H]1OC[C@H]2Oc1nc2nc(NC3CCc4cc(OCCF)cc(F)c43)c(Cl)cc2[nH]1 (stereo partly shown) [Compound I-2-06],3.6,,707
Cn1nccc1-c1cc(F)c2c(c1)CCC2Oc1nc2nc(O[C@@H]3CO[C@H]4[C@@H]3OC[C@H]4O)[nH]c2cc1Cl (stereo partly shown) [Compound I-1-76],15,378,
CC1(COc2cc(F)c3c(c2)CCC3Nc2nc3nc(O[C@@H]4CO[C@H]5[C@@H]4OC[C@H]5O)[nH]c3cc2Cl)COC1 (stereo partly shown) [Compound I-2-54],1.5,643,
CC(C)(O)/C=C/c1cc(F)c2c(c1)CCC2Nc1nc2nc(O[C@@H]3CO[C@H]4[C@@H]3OC[C@H]4O)[nH]c2cc1Cl (stereo partly shown) [Compound I-2-37],3.2,645,
O[C@@H]1CO[C@H]2[C@@H]1OC[C@H]2Oc1nc2nc(NC3CCc4cc(OC5CCNCC5)cc(F)c43)c(Cl)cc2[nH]1 (stereo partly shown) [Compound I-1-93],4,444,
COCCCOc1cc(F)c2c(c1)CCC2Nc1nc2nc(O[C@@H]3CO[C@H]4[C@@H]3OC[C@H]4O)[nH]c2cc1Cl (stereo partly shown) [Compound I-2-52],3.7,629,
OC1CC=C(c2cc(F)c3c(c2)CCC3Nc2nc3nc(O[C@@H]4CO[C@H]5[C@@H]4OC[C@H]5O)[nH]c3cc2Cl)CC1 (stereo partly shown) [Compound I-2-38],3.1,725,
O[C@@H]1CO[C@H]2[C@@H]1OC[C@H]2Oc1nc2nc(NC3CCc4cc(OCC5(F)COC5)cc(F)c43)c(Cl)cc2[nH]1 (stereo partly shown) [Compound I-1-99],4.6,422,
N#Cc1cc(F)c2c(c1)CC[C@@H]2Nc1nc2nc(O[C@@H]3CO[C@H]4[C@@H]3OC[C@H]4O)[nH]c2cc1Cl [Compound I-2-10],3.4,642,
O[C@@H]1CO[C@H]2[C@@H]1OC[C@H]2Oc1nc2nc(NC3CCc4cc(OCCN5CCOCC5)cc(F)c43)c(Cl)cc2[nH]1 (stereo partly shown) [Compound I-1-96],3.6,430,
O[C@@H]1CO[C@H]2[C@@H]1OC[C@H]2Oc1nc2nc(NC3CCc4cc(OCC5CCO5)cc(F)c43)c(Cl)cc2[nH]1 (stereo partly shown) [Compound I-1-83],2.2,414,
COc1ccc(-c2cc(F)c3c(c2)CCC3Nc2nc3nc(O[C@@H]4CO[C@H]5[C@@H]4OC[C@H]5O)[nH]c3cc2Cl)cn1 (stereo partly shown) [Compound I-2-26],7.1,,669
OC/C=C/c1cnc2c(c1)CCC2Nc1nc2nc(O[C@@H]3CO[C@H]4[C@@H]3OC[C@H]4O)[nH]c2cc1Cl (stereo partly shown) [Compound I-1-6],6.8,516,
"Cn1cc(-c2cc(F)c3c(c2)CCC3Oc2nc3nc(O[C@@H]4CO[C@H]5[C@@H]4OC[C@H]5O)[nH]c3cc2Cl)cn1 (single isomer, unassigned) [Compound I-1-20]",4.3,403,
O[C@@H]1CO[C@H]2[C@@H]1OC[C@H]2Oc1nc2nc(NC3CCc4cc(O[C@H]5CCOC5)cc(F)c43)c(Cl)cc2[nH]1 (stereo partly shown) [Compound I-2-50],1.9,678,
O[C@@H]1CO[C@H]2[C@@H]1OC[C@H]2Oc1nc2nc(NC3CCc4cc(OCCOCC(F)(F)F)cc(F)c43)c(Cl)cc2[nH]1 (stereo partly shown) [Compound I-2-05],6,680,
CCOc1cc(F)c2c(c1)CCC2Nc1nc2nc(O[C@@H]3CO[C@H]4[C@@H]3OC[C@H]4O)[nH]c2cc1Cl (stereo partly shown) [Compound I-1-90],11,382,
O[C@@H]1CO[C@H]2[C@@H]1OC[C@H]2Oc1nc2nc(N[C@H]3CCc4cc(O[C@H]5CC[C@@H](O)CC5)cc(F)c43)c(Cl)cc2[nH]1 [Compound I-2-01],1.8,646,
O=C(COc1cc(F)c2c(c1)CCC2Nc1nc2nc(O[C@@H]3CO[C@H]4[C@@H]3OC[C@H]4O)[nH]c2cc1Cl)NCO (stereo partly shown) [Compound I-1-43],6.5,392,
"COC/C=C/c1cnc2c(c1)CCC2Nc1nc2nc(O[C@@H]3CO[C@H]4[C@@H]3OC[C@H]4O)[nH]c2cc1Cl (single isomer, unassigned) [Compound I-1-13]",2,604,
Cn1cc(-c2cnc3c(c2)CCC3Oc2nc3nc(O[C@@H]4CO[C@H]5[C@@H]4OC[C@H]5O)[nH]c3cc2Cl)cn1 (stereo partly shown) [Compound I-1-15],10,388,
CC(C)(O)Cn1cc(-c2cc(F)c3c(c2)CC[C@@H]3Nc2nc3nc(O[C@@H]4CO[C@H]5[C@@H]4OC[C@H]5O)[nH]c3cc2Cl)cn1 [Compound I-2-73],1.4,608,
O[C@@H]1CO[C@H]2[C@@H]1OC[C@H]2Oc1nc2nc(NC3CCc4cc(-c5ccccc5)cnc43)c(Cl)cc2[nH]1 (stereo partly shown) [Compound I-1-46],54,381,
OCCOc1cc(F)c2c(c1)CCC2Nc1nc2nc(O[C@@H]3CO[C@H]4[C@@H]3OC[C@H]4O)[nH]c2cc1Cl (stereo partly shown) [Compound I-1-32],2.3,389,
O[C@@H]1CO[C@H]2[C@@H]1OC[C@H]2Oc1nc2nc(NC3CCc4cc(O[C@@H]5CCOC5)cc(F)c43)c(Cl)cc2[nH]1 (stereo partly shown) [Compound I-2-49],3.4,667,
